Reference: ChEMBL document CHEMBL1201862, “PubChem BioAssay data set” (2004)
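Interpolation was linear, between the two tested concentrations surrounding the appropriate level; five concentrations were tested over 48 hours in 96-well plates. GI50 marks 50% less growth.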 The source made the active and inactive calls. No stated cut-off is given here; in the data, active = GI50 up to about 1.1 µM and inactive = higher.

How the values were obtained:
Test in all cases: NCI tumour cell line growth inhibition, 48 h
OVCAR-8 = tested on: OVCAR-8
KM12 = tested on: KM12
SF-268 = tested on: SF-268
HL-60 = tested on: HL-60
A498 = tested on: A498
HOP-92 = tested on: HOP-92
SW-620 = tested on: SW-620
SNB-75 = tested on: SNB-75
EKVX = tested on: EKVX
ACHN = tested on: ACHN
HOP-62 = tested on: HOP-62
OVCAR-4 = tested on: OVCAR-4
SNB-19 = tested on: SNB-19
Malme-3M = tested on: Malme-3M
SR = tested on: SR
OVCAR-3 = tested on: OVCAR-3

SMILES	GI50 (OVCAR-8)	GI50 (KM12)	GI50 (SF-268)	GI50 (HL-60)	GI50 (A498)	GI50 (HOP-92)	GI50 (SW-620)	GI50 (SNB-75)	GI50 (EKVX)	GI50 (ACHN)	GI50 (HOP-62)	GI50 (OVCAR-4)	GI50 (SNB-19)	GI50 (Malme-3M)	GI50 (SR)	GI50 (OVCAR-3)
CCN1C[C@]2(C)CC[C@H](OC)C34C1C([C@H](OC(C)=O)[C@@H]32)[C@@]1(OC)C[C@H](OC)[C@H]2C[C@@H]4[C@@H]1[C@H]2O	> 100 µM (inactive)	> 100 µM (inactive)	> 100 µM (inactive)	> 100 µM (inactive)	> 100 µM (inactive)	> 100 µM (inactive)	54.2 µM (inactive)	> 100 µM (inactive)	> 100 µM (inactive)	> 100 µM (inactive)	> 100 µM (inactive)	> 100 µM (inactive)	> 100 µM (inactive)	> 100 µM (inactive)		
COc1nc2c(c(O)c(C)c(=O)n2OC2OC(COC(C)=O)C(OC(C)=O)C(OC(C)=O)C2OC(C)=O)c(=O)n1C (stereo not drawn)	> 100 µM (inactive)	> 100 µM (inactive)	> 100 µM (inactive)				> 100 µM (inactive)	> 100 µM (inactive)	> 100 µM (inactive)	> 100 µM (inactive)	> 100 µM (inactive)	> 100 µM (inactive)	> 100 µM (inactive)		> 100 µM (inactive)	
CC(=O)OC1CC2(C)OC(Cc3ccccc32)O1 (stereo not drawn)	> 100 µM (inactive)	> 100 µM (inactive)	> 100 µM (inactive)	> 100 µM (inactive)		53.6 µM (inactive)	> 100 µM (inactive)	65.9 µM (inactive)	> 100 µM (inactive)	> 100 µM (inactive)	> 100 µM (inactive)		> 100 µM (inactive)	> 100 µM (inactive)	> 100 µM (inactive)	> 100 µM (inactive)
O=C(c1ccccc1)c1c(CNCc2ccccc2)n(C(=O)c2ccccc2)c2ccccc12	37.4 µM (inactive)	18.9 µM (inactive)	43.4 µM (inactive)	23.3 µM (inactive)		13.7 µM (inactive)	71.6 µM (inactive)	2.84 µM (inactive)		14.5 µM (inactive)	80.5 µM (inactive)	9.95 µM (inactive)	22.8 µM (inactive)	77.1 µM (inactive)	6.58 µM (inactive)	15.4 µM (inactive)
COc1cc2c(c(OC)c1OC)-c1ccc(SC)c(=O)cc1[C@@H](NCc1ccc([N+](=O)[O-])cc1)CC2	0.00578 µM (active)	0.0034 µM (active)	0.00676 µM (active)	0.00202 µM (active)	0.00461 µM (active)	0.0472 µM (active)	0.00342 µM (active)	0.00354 µM (active)	0.0074 µM (active)	0.00959 µM (active)	0.00741 µM (active)		0.0308 µM (active)	0.00583 µM (active)	0.00148 µM (active)	0.003 µM (active)
C/C=C/C#CC#C/C=C/C=C/C(O)CCO (stereo not drawn)	> 23.1 µM (inactive)	> 23.1 µM (inactive)	> 23.1 µM (inactive)	> 18.1 µM (inactive)		> 23.1 µM (inactive)	> 23.1 µM (inactive)	17.7 µM (inactive)	> 23.1 µM (inactive)	> 23.1 µM (inactive)	> 23.1 µM (inactive)	> 23.1 µM (inactive)	> 23.1 µM (inactive)	> 23.1 µM (inactive)	> 23.1 µM (inactive)	> 23.1 µM (inactive)
Cc1ccc(S(=O)(=O)C(CC(NC=O)S(=O)(=O)c2ccc(C)cc2)NC=O)cc1 (stereo not drawn)	> 100 µM (inactive)	> 100 µM (inactive)	> 100 µM (inactive)	> 100 µM (inactive)	> 100 µM (inactive)	> 100 µM (inactive)	> 100 µM (inactive)	> 100 µM (inactive)	> 100 µM (inactive)		> 100 µM (inactive)	> 100 µM (inactive)	> 100 µM (inactive)	> 100 µM (inactive)	> 100 µM (inactive)	> 100 µM (inactive)
Cc1ccccc1N(CCC#N)C1=NN(C(=O)CC(=O)Nc2ccccc2)C(c2ccccc2)C1 (stereo not drawn)	> 100 µM (inactive)	> 100 µM (inactive)	> 100 µM (inactive)	> 100 µM (inactive)		> 100 µM (inactive)	> 100 µM (inactive)	35 µM (inactive)	> 100 µM (inactive)	> 100 µM (inactive)	> 100 µM (inactive)	> 100 µM (inactive)	> 100 µM (inactive)	> 100 µM (inactive)	44.1 µM (inactive)	> 100 µM (inactive)
c1ccc2cc(C3NCCc4nc[nH]c43)ccc2c1 (stereo not drawn)	89.7 µM (inactive)	17.3 µM (inactive)	> 100 µM (inactive)		25.9 µM (inactive)	49.3 µM (inactive)	61.8 µM (inactive)	46.2 µM (inactive)		23.5 µM (inactive)	> 100 µM (inactive)	57 µM (inactive)			54.2 µM (inactive)	61.2 µM (inactive)
COc1c(O)ccc(/C=N/NC(=S)NCOCCOC(C)=O)c1OC	> 100 µM (inactive)	> 100 µM (inactive)	> 100 µM (inactive)	> 100 µM (inactive)	> 100 µM (inactive)	> 100 µM (inactive)	> 100 µM (inactive)	> 100 µM (inactive)	> 100 µM (inactive)	> 100 µM (inactive)	> 100 µM (inactive)	> 100 µM (inactive)	> 100 µM (inactive)	> 100 µM (inactive)		> 100 µM (inactive)
CCc1ccccc1NC(=O)C1=C(C)NC(C)=C(C(=O)Nc2c(CC)cccc2CC)C1c1ccc2c(c1)OCO2 (stereo not drawn)	25.8 µM (inactive)	16.1 µM (inactive)	20.3 µM (inactive)	23 µM (inactive)		12.7 µM (inactive)	18.1 µM (inactive)	21.8 µM (inactive)	24.2 µM (inactive)	20.5 µM (inactive)	19.7 µM (inactive)	15.2 µM (inactive)	24.9 µM (inactive)	16.5 µM (inactive)		17.8 µM (inactive)
Cc1ccc(/C=C2\CCCC(C(NO)c3ccc(C)cc3)C2=NO)cc1 (stereo not drawn)	53 µM (inactive)	21.2 µM (inactive)	17.6 µM (inactive)	19.5 µM (inactive)	49.8 µM (inactive)		42.6 µM (inactive)	28 µM (inactive)	44.4 µM (inactive)	> 100 µM (inactive)	59.8 µM (inactive)	20 µM (inactive)	83.6 µM (inactive)	52.2 µM (inactive)		16.7 µM (inactive)
Cc1cc2c(C)nn(Cc3ccccc3Cl)c2c(C#N)c1C	> 100 µM (inactive)		> 100 µM (inactive)	> 100 µM (inactive)		> 100 µM (inactive)	> 100 µM (inactive)	> 100 µM (inactive)	> 100 µM (inactive)	> 100 µM (inactive)	> 100 µM (inactive)		> 100 µM (inactive)	> 100 µM (inactive)	> 100 µM (inactive)	> 100 µM (inactive)
Cc1ccccc1C1OC(=O)c2ccccc21 (stereo not drawn)	83.8 µM (inactive)	> 100 µM (inactive)	> 100 µM (inactive)	> 100 µM (inactive)	> 100 µM (inactive)		> 100 µM (inactive)	77.3 µM (inactive)	> 100 µM (inactive)	> 100 µM (inactive)	> 100 µM (inactive)		> 100 µM (inactive)	> 100 µM (inactive)	> 100 µM (inactive)	> 100 µM (inactive)
C=CCNC(=S)NNC(=O)c1c(C)nc2sccn12	> 100 µM (inactive)	> 100 µM (inactive)	> 100 µM (inactive)	> 100 µM (inactive)		70 µM (inactive)	> 100 µM (inactive)		> 100 µM (inactive)	> 100 µM (inactive)	> 100 µM (inactive)		> 100 µM (inactive)	> 100 µM (inactive)	> 100 µM (inactive)	> 100 µM (inactive)
CSc1nnc(C(C#N)C#N)nn1	> 100 µM (inactive)	> 100 µM (inactive)	> 100 µM (inactive)	> 100 µM (inactive)	> 100 µM (inactive)	> 100 µM (inactive)	> 100 µM (inactive)	> 100 µM (inactive)	> 100 µM (inactive)		> 100 µM (inactive)	> 100 µM (inactive)	> 100 µM (inactive)	> 100 µM (inactive)	> 100 µM (inactive)	> 100 µM (inactive)
CCOC1=C2N=C(C(CC)c3ccccc3F)N=C2C(=O)c2ccccc21 (stereo not drawn)	> 100 µM (inactive)	> 100 µM (inactive)	> 100 µM (inactive)	> 100 µM (inactive)		95.7 µM (inactive)	> 100 µM (inactive)	25.4 µM (inactive)	> 100 µM (inactive)	> 100 µM (inactive)	> 100 µM (inactive)	> 100 µM (inactive)	> 100 µM (inactive)	> 100 µM (inactive)	> 100 µM (inactive)	> 100 µM (inactive)
COc1cc2oc(-c3ccccc3)cc(=O)c2c(O)c1C	> 100 µM (inactive)	> 100 µM (inactive)	> 100 µM (inactive)	> 100 µM (inactive)	> 100 µM (inactive)	27.4 µM (inactive)	> 100 µM (inactive)	> 100 µM (inactive)	> 100 µM (inactive)	> 100 µM (inactive)	> 100 µM (inactive)	> 100 µM (inactive)		> 100 µM (inactive)	> 100 µM (inactive)	> 100 µM (inactive)
NCC(NC(=O)OCc1ccccc1)C(=O)O (stereo not drawn)	> 50 µM (inactive)	> 50 µM (inactive)	> 50 µM (inactive)	> 50 µM (inactive)	> 50 µM (inactive)	> 50 µM (inactive)	> 50 µM (inactive)	> 50 µM (inactive)	> 50 µM (inactive)	> 50 µM (inactive)	> 50 µM (inactive)	> 50 µM (inactive)	> 50 µM (inactive)	> 50 µM (inactive)		> 50 µM (inactive)
